The source made the active and inactive calls.
Tests used:
[1] = molecular target: Beta-2 adrenergic receptor (Homo sapiens, UniProt P07550); assay: ADRB2 activation measured by internalization – cell-based, FAP fluorogen, flow cytometry, cherry pick 1, dose response (AID 588763); assay type: functional
HeLa = assay: ATP-based viability loss in HeLa cells – cell-based, CellTiter-Glo luminescence, cherry-pick samples, cytotoxicity control for MITF activator project, dose response (AID 540259); assay type: functional; conditions: Homo sapiens
[2] = molecular target: Glucose-6-phosphate 1-dehydrogenase (Homo sapiens, UniProt P11413); assay: inhibition of Homo sapiens G6PD, dose series – biochemical, fluorescence, selectivity assay for P. falciparum G6PD inhibitor project, dose response (AID 504792); assay type: functional
Phospholipase A2 = Phospholipase A2 (Homo sapiens, UniProt P04054); assay type: functional;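 note: confirmatory dose-response counterscreen on phospholipase A2, testing hits that came from an ultra-high-throughput screen for ATG4B inhibitors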
Cysteine protease ATG4B = molecular target: T1, Cysteine protease ATG4B (Homo sapiens, UniProt Q9Y4P1); assay type: functional;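 note: Fluorescence-based dose-response confirmation assay measuring inhibition of ATG4B activity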
T1 sequence (Q9Y4P1 whole entry): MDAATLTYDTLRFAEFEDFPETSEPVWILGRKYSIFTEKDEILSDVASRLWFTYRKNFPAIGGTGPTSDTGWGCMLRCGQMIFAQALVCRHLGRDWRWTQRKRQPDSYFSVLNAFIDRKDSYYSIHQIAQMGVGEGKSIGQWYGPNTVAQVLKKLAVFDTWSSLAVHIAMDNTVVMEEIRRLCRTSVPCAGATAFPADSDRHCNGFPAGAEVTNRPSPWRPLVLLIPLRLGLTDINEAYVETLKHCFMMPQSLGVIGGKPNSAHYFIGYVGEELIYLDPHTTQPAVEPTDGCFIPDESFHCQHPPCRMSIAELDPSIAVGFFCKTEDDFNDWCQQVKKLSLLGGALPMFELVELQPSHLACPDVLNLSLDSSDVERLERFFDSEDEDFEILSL

Cytochrome P450 2D6 = Cytochrome P450 2D6 (Homo sapiens, UniProt P10635);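 note: CYP2D6 member of a cytochrome P450 panel assay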
Cytochrome P450 2C9 = Cytochrome P450 2C9 (Homo sapiens, UniProt P11712)
Cytochrome P450 1A2 = molecular target: T2, Cytochrome P450 1A2 (Homo sapiens, UniProt P05177);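 note: PubChem cytochrome P450 panel assay, CYP1A2 panel member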
T2 sequence (P05177 whole entry): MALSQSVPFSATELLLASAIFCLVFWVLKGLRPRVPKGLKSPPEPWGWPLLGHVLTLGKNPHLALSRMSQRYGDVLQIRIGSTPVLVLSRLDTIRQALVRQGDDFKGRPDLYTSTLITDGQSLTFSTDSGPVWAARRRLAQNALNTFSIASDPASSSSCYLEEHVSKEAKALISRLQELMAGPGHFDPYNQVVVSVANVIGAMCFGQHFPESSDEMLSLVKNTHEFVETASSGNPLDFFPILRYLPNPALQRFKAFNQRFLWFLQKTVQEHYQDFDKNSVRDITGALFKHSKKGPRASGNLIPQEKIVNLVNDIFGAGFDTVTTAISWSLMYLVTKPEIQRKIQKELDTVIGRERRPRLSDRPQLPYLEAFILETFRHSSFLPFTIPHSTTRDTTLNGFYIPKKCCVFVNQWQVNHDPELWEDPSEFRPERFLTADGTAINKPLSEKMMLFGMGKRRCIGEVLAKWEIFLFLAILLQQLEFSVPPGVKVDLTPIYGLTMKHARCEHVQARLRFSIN

Sequence of Beta-2 adrenergic receptor (P07550 whole entry): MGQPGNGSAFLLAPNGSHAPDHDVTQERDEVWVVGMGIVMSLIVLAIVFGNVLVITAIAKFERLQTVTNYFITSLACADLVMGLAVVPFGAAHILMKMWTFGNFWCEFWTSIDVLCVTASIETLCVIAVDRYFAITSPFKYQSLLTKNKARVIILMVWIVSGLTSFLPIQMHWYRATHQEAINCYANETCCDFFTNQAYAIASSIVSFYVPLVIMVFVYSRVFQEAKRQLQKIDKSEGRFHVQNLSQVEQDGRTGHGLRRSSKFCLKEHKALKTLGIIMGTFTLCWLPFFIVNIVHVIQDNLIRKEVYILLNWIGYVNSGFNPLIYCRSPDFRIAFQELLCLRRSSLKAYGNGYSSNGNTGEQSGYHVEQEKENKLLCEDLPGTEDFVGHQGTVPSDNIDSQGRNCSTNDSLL
Sequence of Cytochrome P450 2D6 (P10635 whole entry): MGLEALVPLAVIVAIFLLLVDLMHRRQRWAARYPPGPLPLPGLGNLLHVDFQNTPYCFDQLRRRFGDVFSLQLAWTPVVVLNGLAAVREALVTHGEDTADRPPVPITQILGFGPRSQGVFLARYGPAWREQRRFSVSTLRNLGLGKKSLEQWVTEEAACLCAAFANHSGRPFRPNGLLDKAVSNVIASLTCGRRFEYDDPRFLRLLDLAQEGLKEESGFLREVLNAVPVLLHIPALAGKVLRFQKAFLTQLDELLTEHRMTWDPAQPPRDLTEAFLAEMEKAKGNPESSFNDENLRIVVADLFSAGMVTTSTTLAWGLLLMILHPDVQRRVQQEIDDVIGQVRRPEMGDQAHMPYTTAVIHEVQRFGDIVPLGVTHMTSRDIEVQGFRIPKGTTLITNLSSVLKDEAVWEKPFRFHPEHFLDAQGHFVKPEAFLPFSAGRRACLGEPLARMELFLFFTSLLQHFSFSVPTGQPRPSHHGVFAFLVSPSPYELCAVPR
Sequence of Cytochrome P450 2C9 (P11712 whole entry): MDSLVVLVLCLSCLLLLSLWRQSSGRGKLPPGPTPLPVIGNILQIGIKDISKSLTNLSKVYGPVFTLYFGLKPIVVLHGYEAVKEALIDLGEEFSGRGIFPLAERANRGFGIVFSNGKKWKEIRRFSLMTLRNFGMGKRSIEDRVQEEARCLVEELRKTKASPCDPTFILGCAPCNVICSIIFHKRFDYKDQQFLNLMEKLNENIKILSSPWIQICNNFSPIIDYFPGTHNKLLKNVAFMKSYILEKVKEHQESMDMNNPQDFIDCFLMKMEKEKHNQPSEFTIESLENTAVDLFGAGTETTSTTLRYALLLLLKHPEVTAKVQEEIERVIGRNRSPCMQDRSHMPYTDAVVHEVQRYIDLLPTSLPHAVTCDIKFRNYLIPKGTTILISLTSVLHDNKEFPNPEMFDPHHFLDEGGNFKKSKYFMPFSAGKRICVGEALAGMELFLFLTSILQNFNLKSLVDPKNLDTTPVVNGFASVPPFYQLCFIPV
Sequence of Phospholipase A2 (P04054 whole entry): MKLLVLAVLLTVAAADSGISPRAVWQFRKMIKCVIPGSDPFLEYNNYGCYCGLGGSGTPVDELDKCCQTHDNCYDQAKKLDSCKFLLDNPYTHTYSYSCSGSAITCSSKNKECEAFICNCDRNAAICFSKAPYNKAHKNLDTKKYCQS
Sequence of Glucose-6-phosphate 1-dehydrogenase (P11413 whole entry): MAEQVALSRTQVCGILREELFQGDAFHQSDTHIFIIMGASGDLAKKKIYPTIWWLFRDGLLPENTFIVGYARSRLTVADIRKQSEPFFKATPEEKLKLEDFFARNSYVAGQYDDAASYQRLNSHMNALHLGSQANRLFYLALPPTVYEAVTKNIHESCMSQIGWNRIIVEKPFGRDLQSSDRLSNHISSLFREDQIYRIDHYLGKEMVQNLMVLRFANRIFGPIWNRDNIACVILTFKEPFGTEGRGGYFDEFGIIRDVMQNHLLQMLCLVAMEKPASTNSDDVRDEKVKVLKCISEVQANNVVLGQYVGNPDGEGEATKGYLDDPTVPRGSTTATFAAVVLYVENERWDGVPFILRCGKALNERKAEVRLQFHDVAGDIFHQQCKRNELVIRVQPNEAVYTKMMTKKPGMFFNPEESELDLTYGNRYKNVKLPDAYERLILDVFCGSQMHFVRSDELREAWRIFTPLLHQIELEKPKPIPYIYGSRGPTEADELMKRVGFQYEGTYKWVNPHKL

With `Cc1ccc(O)c(NC(=O)c2cccc(NC(=O)c3ccco3)c2)c1` the EC50 [1] was 0.132 µM (active).
`COc1ccc(/C=C/c2nc3ccccc3n2Cc2ccc(OC)c(OC)c2)cc1` was tested, and the AC50 (HeLa) was 37 µM (active) and the IC50 [2] was > 80 µM (inactive).
`CCc1ccccc1N(C)S(=O)(=O)c1ccc2ncc(C(=O)O)c(O)c2c1` was tested, and the EC50 [1] was 7.23 µM (active).
`Cc1onc(-c2ccccc2)c1CNC(=O)Nc1cccc(Cl)c1` was tested, and the IC50 (Phospholipase A2) was 8.35 µM (active) and the IC50 (Cysteine protease ATG4B) was 15 µM (active).
For `Oc1nc(-c2ccccc2)cc(C(F)(F)F)n1`, the AC50 (Cytochrome P450 2D6) was “inconclusive”, the AC50 (Cytochrome P450 2C9) was 6.31 µM (inconclusive) and the AC50 (Cytochrome P450 1A2) was 11.2 µM (inconclusive).

— ChEMBL document CHEMBL1201862, “PubChem BioAssay data set” (2004)
